Patent US20230122540A1, “SYSTEMS AND METHODS TO TRACK THE EVOLUTION OF SINGLE CELLS” (Genentech, Inc., priority 2020, published 2023)

Tests used:
Format in all cases: cell-based, human
ATF4, CHOP, GADD34 = experiment: qRT-PCR of pro-death genes downstream of ER stress; details: PC9 and NCI-H1975 cells, day three
Protocol: RNA extraction and qRT-PCR: RNA was extracted using Qiagen RNeasy Plus kit following manufacturer's instruction. RNA was reverse transcribed using High-Capacity cDNA Reverse Transcription Kit (Thermo Fisher Scientific Cat. No. 4368814). qPCRs were performed using TaqMan™ Fast Advanced Master Mix (Thermo Fisher Scientific Cat. No. 4444557) on ABI QuantStudio 7 Flex Real-Time PCR Systems. HPRT1 was used as the internal control to quantify relative gene expression levels. Taqman probes were obtained from Thermo Fisher Scientific (Cat. No. 431182, 4448490). These probes were used in the study: ATF4 Hs00909569_g1, DDIT3/CHOP Hs00358796_g1, PPP1R15A/GADD34 Hs00169585_m1, SLC7A5 Hs01001183_m1, ETV4 Hs00385910_m1, SPRY4 Hs00540086_m1, DUSP6 Hs04329643_s1, HPRT1 Hs02800695_m1.

PC9 cells = experiment: Caspase-Glo 3/7 cell death assay, EGFRi+CCT020312; details: Caspase-Glo 3/7, 24 h post-treatment
Protocol: Cell viability and cell death quantification: For experiments shown in FIGS. 24C, 27D, the indicated cells were seeded at desired densities in replicates in 24-well plates and allowed to attach overnight. The following day cells were treated with the indicated compounds. Media containing the appropriate compounds was replenished every 48 hours. At each media change, cell viabilities were quantified using CellTiter-Glo Luminescent Cell Viability Assay (Promega, G7572). For experiments shown in FIG. 191 and FIG. 29D, PC9 cells were seeded in replicates in 96-well plates and allowed to attach overnight. The following day cells were treated with the indicated compounds or compound combinations at the indicated concentrations. Induction of cell death was quantified 24 h post-treatment using Caspase-Glo 3/7 Assay System (Promega, G8093) and cell survival were measured 72 h post-treatment using CellTiter-Glo Luminescent Cell Viability Assay (Promega, G7572). CCT020312 was obtained from EMD Millipore (324879).

NCI-H1975 cells = experiment: Clonogenic / CellTiter-Glo assay with allosteric degraders; details: compared to osimertinib
Protocol: Clonogenic assay: Cells were seeded at desired densities in two to three replicates in 6-well plates and allowed to attach overnight. The following day cells were treated with the indicated compounds. Media containing the appropriate compounds was replenished every 48-72 hours. At the end of the assay, the cells were washed once with PBS, fixed and stained with crystal violet solution (Sigma Aldrich, HT90132) for 20 minutes, washed with water, and allowed to dry before scanning. For experiments shown in FIG. 18E erlotinib concentration were determined to match the cell viability effect to 1 μM GNE-069 in each cell line, so that 1 μM erlotinib was applied to PC-9 and HCC2935, and 100 nM erlotinib was applied to HCC4006 and HCC827. […]
Cell viability and cell death quantification: For experiments shown in FIGS. 24C, 27D, the indicated cells were seeded at desired densities in replicates in 24-well plates and allowed to attach overnight. […] At each media change, cell viabilities were quantified using CellTiter-Glo Luminescent Cell Viability Assay (Promega, G7572). […] Induction of cell death was quantified 24 h post-treatment using Caspase-Glo 3/7 Assay System (Promega, G8093) and cell survival were measured 72 h post-treatment using CellTiter-Glo Luminescent Cell Viability Assay (Promega, G7572). […]

| Compound | induction of ISR genes in combination with erlotinib or osimertinib (ATF4, CHOP, GADD34) | cell death induction in combination with erlotinib or osimertinib (PC9 cells) | single agent anti-growth activity (NCI-H1975 cells) |
| --- | --- | --- | --- |
| CCN(CC)CCC(=O)N1N=C(c2c(-c3ccccc3)c3cc(Br)ccc3[nH]c2=O)CC1c1ccc(Br)cc1 (stereo not drawn) [CCT020312] | further boosted induction of ISR genes by erlotinib and osimertinib | enhanced cell death induction | – |
| O=C(Nc1nccs1)C(c1cc(F)ccc1O)N1Cc2ccccc2C1=O (stereo not drawn) [EAI-045] | – | – | very modest single agent activity |
